The results in this text go back to ChEMBL document CHEMBL1201862, “PubChem BioAssay data set” (2004).

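Cultured in 96-well plates, cells were exposed to test compound for 48 hours across five concentrations. GI50 is the concentration that inhibits growth by half.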 Calls of active or inactive are those of the source. Cut-off read from the data, not from the text of the source: active = GI50 up to about 1.1 µM and inactive = higher. Bounds are passed on as bounds.

Test systems include SNB-75; NCI-H460; HCC 2998; Malme-3M; SF-539; OVCAR-4; SN12C; CCRF-CEM; MCF7; A498; HL-60; MOLT-4; NCI-H522; NCI-H23; TK-10; 786-0; OVCAR-5; NCI/ADR-RES; T47D; BT-549.
What all share (assay): DTP human tumour cell line panel, 48 h

For `Cc1ccc(C2NC(=O)c3ccccc3N2)c(C)c1` (stereo unspecified), the GI50 in the experiment with SNB-75 is 1.92 µM (inactive); in the experiment with NCI-H460 it was 3.07 µM (inactive); in the experiment with HCC 2998 it was 4.52 µM (inactive); with Malme-3M, 1.69 µM (inactive); in the experiment on SF-539 it was 1.61 µM (inactive); with OVCAR-4, 2.68 µM (inactive). Moreover, the GI50 is 6.9 µM (inactive) with SN12C; 1.63 µM (inactive) with CCRF-CEM; 1.07 µM (active) with MCF7; 5.04 µM (inactive) in the experiment on A498; 0.453 µM (active) with HL-60; 0.736 µM (active) with MOLT-4. Further, the GI50 was 1.88 µM (inactive) in the experiment on NCI-H522; 7.14 µM (inactive) in the experiment with NCI-H23; 7.33 µM (inactive) in the experiment on TK-10; 3.97 µM (inactive) with 786-0; 8.43 µM (inactive) in the experiment on OVCAR-5; 1.34 µM (inactive) in the experiment on NCI/ADR-RES. In addition, in the experiment with T47D, the GI50 is 6.01 µM (inactive).

As for `CCC(c1ccc(OC)cc1)C1NC(=S)NC1=O` (stereo unspecified), the GI50 with SNB-75, in the experiment with NCI-H460, with HCC 2998, with Malme-3M, with SF-539 and in the experiment with OVCAR-4 was > 50 µM (inactive) in each case. Moreover, the GI50 was > 50 µM (inactive) with SN12C; > 50 µM (inactive) in the experiment on CCRF-CEM; > 50 µM (inactive) with MCF7; > 50 µM (inactive) in the experiment on A498; 12.4 µM (inactive) in the experiment on HL-60; 35.5 µM (inactive) in the experiment on MOLT-4. The GI50 in the experiment with NCI-H522, with NCI-H23, in the experiment on TK-10, in the experiment with 786-0, with OVCAR-5 and with NCI/ADR-RES was > 50 µM (inactive) throughout. Further, the GI50 in the experiment on T47D was > 50 µM (inactive).

On to `Cc1ccc(C(=O)N/N=C(\N=N\c2ccccc2C(=O)O)c2ccc(N(C)C)cc2)cc1`, for which the GI50 was 72.6 µM (inactive) in the experiment on NCI-H460; 71.4 µM (inactive) in the experiment with HCC 2998; > 100 µM (inactive) in the experiment with SF-539; 64.7 µM (inactive) in the experiment on OVCAR-4; > 100 µM (inactive) with SN12C; 43.5 µM (inactive) in the experiment with CCRF-CEM. Further, the GI50 with MCF7 was > 100 µM (inactive); in the experiment on HL-60, 53.5 µM (inactive); with MOLT-4 it was 71.4 µM (inactive); in the experiment on NCI-H522, 46.3 µM (inactive); in the experiment with NCI-H23, > 100 µM (inactive); in the experiment on TK-10 it was > 100 µM (inactive). Also, the GI50 in the experiment with 786-0 was > 100 µM (inactive); with OVCAR-5 it was > 100 µM (inactive); in the experiment on BT-549 it was > 100 µM (inactive); in the experiment on NCI/ADR-RES it was 71.6 µM (inactive).

On to `NC1=C(N2CCOCC2)C(=O)NC2=N/C(=C\c3ccccc3)C(=O)N21`, for which the GI50 is > 100 µM (inactive) in the experiment on SNB-75; > 100 µM (inactive) in the experiment on NCI-H460; > 100 µM (inactive) in the experiment with HCC 2998; > 100 µM (inactive) with Malme-3M; 76.7 µM (inactive) with SF-539; > 100 µM (inactive) in the experiment on OVCAR-4. In addition, the GI50 with SN12C was > 100 µM (inactive); in the experiment with CCRF-CEM, 79.6 µM (inactive); in the experiment with MCF7 it was > 100 µM (inactive); with A498 it was 64.3 µM (inactive); in the experiment on HL-60, 17.9 µM (inactive); in the experiment with MOLT-4, 35.8 µM (inactive). Besides, the GI50 with NCI-H522, in the experiment with NCI-H23, with TK-10, in the experiment with 786-0, in the experiment with OVCAR-5 and in the experiment with NCI/ADR-RES was > 100 µM (inactive) throughout. For the same molecule, the GI50 in the experiment with T47D was 81.3 µM (inactive).

On to `O=C1/C(=C/c2cccc(Br)c2)CCc2ccccc21`, for which the GI50 is 14.5 µM (inactive) in the experiment with SNB-75; 15.2 µM (inactive) with NCI-H460; 12.4 µM (inactive) in the experiment on Malme-3M; 17.5 µM (inactive) with SF-539; 13.1 µM (inactive) in the experiment on OVCAR-4; 15.4 µM (inactive) in the experiment on SN12C. The GI50 with CCRF-CEM was 3.26 µM (inactive); in the experiment on MCF7, 3.75 µM (inactive); with HL-60, 5.68 µM (inactive); in the experiment with MOLT-4, 10.2 µM (inactive); with NCI-H522, 10.6 µM (inactive); with NCI-H23 it was 15.8 µM (inactive). Moreover, the GI50 in the experiment on TK-10 is 16.5 µM (inactive); in the experiment on 786-0, 16.3 µM (inactive); in the experiment with OVCAR-5, 14.9 µM (inactive); in the experiment with BT-549 it was 9.53 µM (inactive); with NCI/ADR-RES, 14 µM (inactive).

On to `CC(C)C1COC(c2ccc3ccccc3c2-c2c(O[Si](C)(C)C(C)(C)C)ccc3ccccc23)=N1` (stereo unspecified), for which the GI50 in the experiment on SNB-75 is 17.9 µM (inactive); in the experiment with NCI-H460 it was 19.6 µM (inactive); with HCC 2998, 15.1 µM (inactive); in the experiment with Malme-3M it was 18.4 µM (inactive); in the experiment on SF-539, 16.9 µM (inactive); in the experiment with OVCAR-4, 14.6 µM (inactive). Besides, the GI50 in the experiment on SN12C was 16.6 µM (inactive); with CCRF-CEM it was 18.1 µM (inactive); in the experiment with A498, 19.2 µM (inactive); with HL-60, 16.1 µM (inactive); in the experiment on MOLT-4, 15.6 µM (inactive); in the experiment with NCI-H522, 15.2 µM (inactive). The GI50 is 16.3 µM (inactive) in the experiment on NCI-H23, 17.9 µM (inactive) with TK-10, 18.4 µM (inactive) in the experiment on 786-0 and 18.4 µM (inactive) in the experiment on OVCAR-5.

As to `CN/N=C(\C)CC(=O)Nc1cccc(Cl)c1C`, the GI50 in the experiment on SNB-75, in the experiment with NCI-H460, in the experiment with HCC 2998, in the experiment on Malme-3M, in the experiment with SF-539 and with OVCAR-4 was > 100 µM (inactive) throughout. The GI50 in the experiment on SN12C was > 100 µM (inactive); in the experiment with CCRF-CEM, 96.6 µM (inactive); in the experiment with A498 it was > 100 µM (inactive); in the experiment with HL-60 it was > 100 µM (inactive); with MOLT-4, > 100 µM (inactive); with NCI-H522 it was 38.6 µM (inactive). The GI50 in the experiment on NCI-H23, in the experiment on TK-10, in the experiment on 786-0 and in the experiment on OVCAR-5 was > 100 µM (inactive) throughout.

With `Cc1nc2c(nc1C)-c1[nH]c3c(c1C(=O)C2=O)CCCC3=O`, the GI50 in the experiment on SNB-75 was 1.77 µM (inactive); in the experiment with NCI-H460 it was 3.94 µM (inactive); in the experiment on HCC 2998, 2.08 µM (inactive); in the experiment on Malme-3M it was 1.29 µM (inactive); with SF-539, 1.68 µM (inactive); with OVCAR-4, 1.6 µM (inactive). The GI50 was 1.77 µM (inactive) with SN12C; 1.91 µM (inactive) in the experiment with CCRF-CEM; 1.38 µM (inactive) in the experiment with MCF7; 8.3 µM (inactive) in the experiment on A498; 2.42 µM (inactive) in the experiment on HL-60; 2.23 µM (inactive) in the experiment on MOLT-4. Further, the GI50 is 2.1 µM (inactive) with NCI-H522; 1.93 µM (inactive) with NCI-H23; 17.5 µM (inactive) with TK-10; 2.54 µM (inactive) in the experiment on 786-0; 2.18 µM (inactive) with OVCAR-5; 2.25 µM (inactive) in the experiment with NCI/ADR-RES. The GI50 in the experiment with T47D is 0.592 µM (active).

`O=C(Sc1c(-c2ccccc2)c(=O)n(-c2ccccc2)c(=S)n1-c1ccccc1)c1ccc(Cl)cc1`: the GI50 with SNB-75, with NCI-H460, with HCC 2998, with Malme-3M, in the experiment with SF-539 and with OVCAR-4 was > 100 µM (inactive) in each case. Also, the GI50 in the experiment with SN12C was > 100 µM (inactive); in the experiment with CCRF-CEM it was 32.5 µM (inactive); in the experiment with MCF7 it was 74.3 µM (inactive); in the experiment with A498, 98.9 µM (inactive); in the experiment with HL-60, > 100 µM (inactive); in the experiment on MOLT-4, 49.3 µM (inactive). The GI50 was 81.5 µM (inactive) in the experiment with NCI-H522; > 100 µM (inactive) in the experiment on NCI-H23; > 100 µM (inactive) in the experiment on TK-10; > 100 µM (inactive) with 786-0; > 100 µM (inactive) with OVCAR-5; > 100 µM (inactive) in the experiment on NCI/ADR-RES. Moreover, the GI50 in the experiment on T47D was 71 µM (inactive).

As for `CC(C)Oc1c(-c2ccc(F)cc2)c(O)c2c3c1oc(=O)n3C=CC2C` (stereo unspecified), the GI50 with SNB-75 is 14.8 µM (inactive); in the experiment on NCI-H460, 14.2 µM (inactive); with HCC 2998 it was 13.4 µM (inactive); in the experiment on Malme-3M, 22.3 µM (inactive); in the experiment on SF-539, 13.4 µM (inactive); in the experiment on OVCAR-4 it was 10.7 µM (inactive). The GI50 in the experiment with SN12C is 11.5 µM (inactive); in the experiment on CCRF-CEM it was 11 µM (inactive); with MCF7, 11.3 µM (inactive); with A498, 15 µM (inactive); in the experiment on HL-60, 10.4 µM (inactive); in the experiment with MOLT-4 it was 6.07 µM (inactive). Moreover, the GI50 was 12.1 µM (inactive) with NCI-H522; 11.8 µM (inactive) in the experiment on NCI-H23; 16.9 µM (inactive) with TK-10; 14.7 µM (inactive) in the experiment with 786-0; 24.7 µM (inactive) with OVCAR-5; 14 µM (inactive) with BT-549. In addition, the GI50 in the experiment with NCI/ADR-RES is 13.8 µM (inactive).

Turning to `COc1ccc(C(OC(C)=O)C2C(=C(C#N)C#N)c3ccccc3C2=C(C#N)C#N)cc1` (stereo unspecified), the GI50 in the experiment with SNB-75 was 36.1 µM (inactive); with NCI-H460, 28.1 µM (inactive); in the experiment with HCC 2998 it was 22.6 µM (inactive); in the experiment on SF-539, 20.6 µM (inactive); in the experiment on OVCAR-4 it was 32.4 µM (inactive); in the experiment on CCRF-CEM it was 21.8 µM (inactive). In addition, the GI50 in the experiment with MCF7 was 48.3 µM (inactive); with A498, 24.1 µM (inactive); in the experiment with HL-60 it was 18.5 µM (inactive); with MOLT-4, 25.9 µM (inactive); in the experiment with NCI-H522, 38.2 µM (inactive); in the experiment with NCI-H23 it was 25.9 µM (inactive). Besides, the GI50 is 83.9 µM (inactive) in the experiment on TK-10; 60.4 µM (inactive) in the experiment on 786-0; 17.2 µM (inactive) in the experiment on OVCAR-5; 50.1 µM (inactive) with NCI/ADR-RES; 70 µM (inactive) with T47D.
